Laboratory results from patent publication US12257237B2 (priority 2017, dated 2025).
Where “and” joins values, the source holds several entries; their conditions need not be identical. Identical values can stand only once.

Tests used:
[1] = Drug tolerability (body weight) in TC-71 Ewing sarcoma xenograft model; type: in vivo, Athymic nude mice; conditions: Irinotecan 50 mg/kg; for BWL %: negative = loss vs day 9
Experimental: (§1) Experiments were performed with female Athymic nude mice, 9-10 weeks old obtained from Harlan Laboratories (Udine, Italy). They were maintained under Specific Pathogen Free conditions with constant temperature and humidity, according to the institutional guidelines.
(§2) Tumour growth mice was monitored two/three times a week (depending on tumour growth rate, to avoid unnecessary stress to the animals) by Vernier caliper. Mice were sacrificed when tumour reached a mean weight of 2±0.5 gr. The antitumour activity will be expressed as T/C %, where T and C were the mean tumour weight of treated and control groups, respectively. Mice were monitored daily and weighted at least two times a week. Tolerability was evaluated on the basis of body weight loss (BWL) and clinical observation.

TC-71 Ewing sarcoma = experiment: Antitumour activity in TC-71 Ewing sarcoma xenograft model; type: in vivo, Athymic nude mice
Experimental: as §1, §2
Statistical analysis was performed with GraphPad Prism version 6.01 software (GraphPad software, Inc., La Jolla, CA, USA). ANOVA test was performed to evaluate if there were statistically significant differences between treated and control groups.
5×10^6 TC-71 cells were inoculated subcutaneously in the right flank of mice. The growing tumour masses were measured with the aid of a Vernier caliper, and the tumour weights (1 mm^3=1 mg) were calculated by the formula: length×(width) 2/2. When tumour load achieved about 100 mg, mice were randomized into the experimental groups and treatment started.

[2] = day 9 from tumour inoculum (treatment start)
[3] = 50 mg/kg i.v. q7dx3, day 9 from inoculum
[4] = 50 mg/kg i.v. q7dx3, day 11 from inoculum
[5] = 50 mg/kg i.v. q7dx3, day 14 from inoculum
[6] = 50 mg/kg i.v. q7dx3, day 16 from inoculum
[7] = 50 mg/kg i.v. q7dx3, day 18 from inoculum
[8] = 50 mg/kg i.v. q7dx3, day 21 from inoculum
[9] = 50 mg/kg i.v. q7dx3, day 23 from inoculum
[10] = 50 mg/kg i.v. q7dx3, day 25 from inoculum
[11] = 50 mg/kg i.v. q7dx3, day 28 from inoculum
[12] = 50 mg/kg i.v. q7dx3, day 30 from inoculum
[13] = 50 mg/kg i.v. q7dx3, day 32 from inoculum
[14] = 50 mg/kg i.v. q7dx3, day 35 from inoculum
[15] = 50 mg/kg i.v. q7dx3, day 38 from inoculum
[16] = 50 mg/kg i.v. q7dx3, day 42 from inoculum
[17] = 50 mg/kg i.v. q7dx3, day 45 from inoculum
[18] = 50 mg/kg i.v. q7dx3, day 49 from inoculum
[19] = 50 mg/kg i.v. q7dx3, day 53 from inoculum

CCc1c2c(nc3ccc(OC(=O)N4CCC(N5CCCCC5)CC4)cc13)-c1cc3c(c(=O)n1C2)COC(=O)[C@]3(O)CC [Irinotecan, reference compound]
Mouse body weight, group Mean [1, 2]: 27.4 g | BWL % [1, 2]: 0.0% | Mouse body weight, group Mean ([1]; day 10 from tumour inoculum): 25.8 g | BWL % ([1]; day 10 from tumour inoculum): −6.1% | Mouse body weight, group Mean ([1]; day 11 from tumour inoculum): 25.6 g | BWL % ([1]; day 11 from tumour inoculum): −6.6% | Mouse body weight, group Mean ([1]; day 14 from tumour inoculum): 26.9 g | BWL % ([1]; day 14 from tumour inoculum): −1.9% | Mouse body weight, group Mean ([1]; day 16 from tumour inoculum): 27.0 g | BWL % ([1]; day 16 from tumour inoculum): −1.7% | Mouse body weight, group Mean ([1]; day 18 from tumour inoculum): 26.0 g | BWL % ([1]; day 18 from tumour inoculum): −5.3% | Mouse body weight, group Mean ([1]; day 21 from tumour inoculum): 26.2 g | BWL % ([1]; day 21 from tumour inoculum): −4.3% | Mouse body weight, group Mean ([1]; day 23 from tumour inoculum): 26.5 g | BWL % ([1]; day 23 from tumour inoculum): −3.5% | Mouse body weight, group Mean ([1]; day 25 from tumour inoculum): 25.4 g | BWL % ([1]; day 25 from tumour inoculum): −7.5% | Mouse body weight, group Mean ([1]; day 28 from tumour inoculum): 26.4 g | BWL % ([1]; day 28 from tumour inoculum): −3.9% | Mouse body weight, group Mean ([1]; day 30 from tumour inoculum): 27.1 g | BWL % ([1]; day 30 from tumour inoculum): −1.1% | Mouse body weight, group Mean ([1]; day 32 from tumour inoculum): 27.0 g | BWL % ([1]; day 32 from tumour inoculum): −1.6% | Mouse body weight, group Mean ([1]; day 35 from tumour inoculum): 27.9 g | BWL % ([1]; day 35 from tumour inoculum): 1.7% | Mouse body weight, group Mean ([1]; day 38 from tumour inoculum): 27.2 g | BWL % ([1]; day 38 from tumour inoculum): −0.7% | Mouse body weight, group Mean ([1]; day 42 from tumour inoculum): 28.4 g | BWL % ([1]; day 42 from tumour inoculum): 3.5% | Mouse body weight, group Mean ([1]; day 46 from tumour inoculum): 27.8 g | BWL % ([1]; day 46 from tumour inoculum): 1.5% | Mouse body weight, group Mean ([1]; day 49 from tumour inoculum): 28.4 g | BWL % ([1]; day 49 from tumour inoculum): 3.6% | Mouse body weight, group Mean ([1]; day 53 from tumour inoculum): 28.1 g | BWL % ([1]; day 53 from tumour inoculum): 2.3% | TC-71 tumour weight, individual mice (TC-71 Ewing sarcoma; [3]): 316.8 mg and 124.6 mg and 103.5 mg and 88.1 mg | TC-71 tumour weight, mean (TC-71 Ewing sarcoma; [3]): 106.4 mg | TC-71 tumour weight, individual mice (TC-71 Ewing sarcoma; [4]): 90.6 mg and 45.7 mg and 63.3 mg | TC-71 tumour weight, mean (TC-71 Ewing sarcoma; [4]): 76.4 mg | TC-71 tumour weight, individual mice (TC-71 Ewing sarcoma; [5]): 87.8 mg and 16.6 mg and 9.9 mg and 17.1 mg | TC-71 tumour weight, mean (TC-71 Ewing sarcoma; [5]): 22.6 mg | TC-71 tumour weight, individual mice (TC-71 Ewing sarcoma; [6]): 99.6 mg and 41.5 mg and 23.8 mg and 72.8 mg | TC-71 tumour weight, mean (TC-71 Ewing sarcoma; [6]): 35.0 mg | TC-71 tumour weight, individual mice (TC-71 Ewing sarcoma; [7]): 44.2 mg and 11.3 mg and 8.8 mg and 28.1 mg | TC-71 tumour weight, mean (TC-71 Ewing sarcoma; [7]): 14.8 mg | optimal T/C (TC-71 Ewing sarcoma; 50 mg/kg i.v. q7dx3, day 21): 0.4% | TC-71 tumour weight, individual mice (TC-71 Ewing sarcoma; [8]): 9.6 mg and 2.4 mg and 6.1 mg and 7.5 mg | TC-71 tumour weight, mean (TC-71 Ewing sarcoma; [8]): 6.1 mg | TC-71 tumour weight, individual mice (TC-71 Ewing sarcoma; [9]): 1.7 mg and 5.4 mg | TC-71 tumour weight, mean (TC-71 Ewing sarcoma; [9]): 7.0 mg | TC-71 tumour weight, individual mice (TC-71 Ewing sarcoma; [10]): 9.9 mg and 3.3 mg | TC-71 tumour weight, mean (TC-71 Ewing sarcoma; [10]): 5.9 mg | TC-71 tumour weight, individual mice (TC-71 Ewing sarcoma; [11]): 6.8 mg and 1.5 mg and 3.3 mg and 2.5 mg | TC-71 tumour weight, mean (TC-71 Ewing sarcoma; [11]): 3.5 mg | TC-71 tumour weight, individual mice (TC-71 Ewing sarcoma; [12]): 15.4 mg and 2.7 mg and 3.8 mg and 2.6 mg | TC-71 tumour weight, mean (TC-71 Ewing sarcoma; [12]): 6.1 mg | TC-71 tumour weight, individual mice (TC-71 Ewing sarcoma; [13]): 83.7 mg and 8.2 mg and 12.1 mg and 9.2 mg | TC-71 tumour weight, mean (TC-71 Ewing sarcoma; [13]): 28.3 mg | TC-71 tumour weight, individual mice (TC-71 Ewing sarcoma; [14]): 223.4 mg and 42.7 mg and 36.0 mg and 53.8 mg | TC-71 tumour weight, mean (TC-71 Ewing sarcoma; [14]): 88.9 mg | TC-71 tumour weight, individual mice (TC-71 Ewing sarcoma; [15]): 713.8 mg and 105.6 mg and 74.5 mg and 145.5 mg | TC-71 tumour weight, mean (TC-71 Ewing sarcoma; [15]): 259.8 mg | TC-71 tumour weight, individual mice (TC-71 Ewing sarcoma; [16]): 2687.8 mg and 327.2 mg and 346.6 mg and 199.0 mg | TC-71 tumour weight, mean (TC-71 Ewing sarcoma; [16]): 890.2 mg | TC-71 tumour weight, individual mice (TC-71 Ewing sarcoma; [17]): 2443.2 mg and 627.6 mg and 589.7 mg and 305.0 mg | TC-71 tumour weight, mean (TC-71 Ewing sarcoma; [17]): 991.4 mg | TC-71 tumour weight, individual mice (TC-71 Ewing sarcoma; [18]): 2887.4 mg and 1184.6 mg and 1244.3 mg and 316.1 mg | TC-71 tumour weight, mean (TC-71 Ewing sarcoma; [18]): 1408.1 mg | TC-71 tumour weight, individual mice (TC-71 Ewing sarcoma; [19]): 3331.8 mg and 1062.6 mg and 2135.1 mg and 308.0 mg | TC-71 tumour weight, mean (TC-71 Ewing sarcoma; [19]): 1709.4 mg | mice exhibiting sustained CR up to the conclusion of the experiment (TC-71 Ewing sarcoma; 50 mg/kg q7dx3): 4 mice | tumour regression (TC-71 Ewing sarcoma; 50 mg/kg q7dx3): tumour regression in all mice
